Measurements as given in article PMC9320560, “Structure-Based Identification and Biological Characterization of New NAPRT Inhibitors” (Pharmaceuticals, 2022).
“Also recorded” adds a separate entry of the source.

How the values were obtained:
[1] = system: intracellular NAD+ levels in OVCAR-5 cells; test: Intracellular NAD+ quantification (enzyme cycling assay); assay type: cell-based; settings: for drop in NAD+ levels / interaction with FK866 in NAD+ reduction: test compound 100 µM + 30 nM FK866, 20 h
Method: The assay that was performed on OVCAR-5 cell viability led to a set of potential NAPRT inhibitors, namely IM 29, IM 38, IM 43, IM 49, MMB-128, MMB-131, MMB-268, and MMB-312. In order to confirm that the cited compounds sensitized OVCAR-5 cells to the NAMPT inhibitor FK866 by interfering with NAD biosynthesis, we quantified the intracellular NAD^+ levels in OVCAR-5 cells after 20-h treatments with these compounds with or without FK866.
Figure 3 A subset of test compounds cooperates synergistically with FK866 in decreasing intracellular NAD^+ levels in OVCAR-5 cells. The compounds were administered to cells alone or in combination with FK866 for 20 h. Quantification of NAD^+ was performed via an enzyme cycling assay and normalized to cell lysate protein content. The results are the mean ± SD of two technical replicates with two biological replicates each. *, p < 0.05; **, p < 0.01; ***, p < 0.001 vs. the respective control, i.e., FK866-untreated control for the test compounds that were administered alone to cells, and FK866-treated control for the combinations of test compound and FK866; §, p < 0.05 versus FK866-untreated, control cells.
A total of 1 × 10^5 OVCAR-5 cells/well were plated in 24-well plates in the regular culture medium. 24 h later the cell medium was removed and the cells were cultured either in the regular medium that was supplemented with 0.3 µM nicotinic acid (control wells) or in the treatment medium (regular medium with 0.3 µM nicotinic acid and combinations of 30 nM FK866, 1 mM 2-HNA and 100 µM of test compounds). Each condition was performed in duplicate and the cells remained under treatment for a total of 20 h at 37 °C. Thereafter, the cell medium was removed and the cells were harvested and lysed with 0.6 M perchloric acid (PCA). Samples in PCA were neutralized by diluting the extracts in 100 mM sodium phosphate buffer (pH 8) and the total intracellular NAD^+ content was determined with a sensitive enzyme cycling assay that exploits the use of alcohol dehydrogenase. The obtained NAD^+ values were normalized to cell lysate protein content that was quantified by the Bradford method.

OVCAR-5 cells = test: Cell viability assay (SRB): sensitization of OVCAR-5 cells to FK866; assay type: cell-based; settings: for combination index (CI) with FK866: 0.3 µM nicotinic acid in medium; for cell viability, single-agent treatment: 72 h, 100 nM FK866 alone or 1 mM 2-HNA alone
From the text: The first assay that we performed to test the putative NAPRT inhibitors was based on the principle that NAPRT-expressing OVCAR-5 cells are resistant to FK866 whereas the simultaneous chemical inhibition of NAPRT with 2-HNA renders the cells sensitive to the NAMPT inhibitor due to the cooperation between FK866 and 2-HNA in depleting the intracellular NAD pool. […] Thus, 2-HNA was used throughout the study as a positive control in our cell viability assay and any test compound resembling its activity was considered a potential NAPRT inhibitor. It is worth mentioning that, to reflect the physiological contribution of the Preiss–Handler pathway to NAD biosynthesis, all cell-based assays that are presented in this study were performed under a nicotinic acid concentration of 0.3 µM in the cell culture medium (Figure S1).
We decided to use combination index (CI) as a measure to determine the degree of interaction between FK866 and the test compounds i.e., to identify potential new NAPRT inhibitors. A CI < 1 indicates a synergistic interaction between the test compound and FK866 in decreasing cell viability. A CI = 1 and a CI > 1 are indicative of an additive and of an antagonistic effect, respectively.
A total of 3 × 10^3 OVCAR-5 cells/well were plated in 96-well plates in the regular culture medium. 24 h later the cell medium was removed and the cells were subsequently incubated either in the regular medium that was supplemented with 0.3 µM nicotinic acid (control wells) or in the treatment medium which contained 0.3 µM nicotinic acid and combinations of 100 nM FK866, 1 mM 2-HNA, and 100 µM of test compounds. Each condition was performed in triplicate and the cells remained under treatment for a total of 72 h at 37 °C. Thereafter, the culture plates were fixed with 10% trichloroacetic acid at 4 °C for 20 min, washed with cold water, and dried overnight. The plates were stained with 0.04% sulforhodamine B (SRB) in 1% acetic acid, washed four times with 1% acetic acid to remove the unbound dye, and dried overnight. Lastly, Trizma®-base 10 mM was added to the plates and cell viability was quantified by absorbance measurements on a Tecan Infinite® 200 PRO instrument.
To quantify the extent of the interaction between FK866 and the putative NAPRT inhibitors or 2-HNA, we applied the combination index (CI) equation that is depicted below:(1) CI=mortality % A+mortality % B /mortality % A+B where: ‘A’ refers to the treatment of cells with FK866 100 nM; ‘B’ refers to the treatment of cells with the test compound 100 µM or 2-HNA 1 mM; ‘A + B’ refers to the coadministration of FK866 100 nM and the test compound at 100 µM or 2-HNA 1 mM. A synergistic interaction is evidenced by CI < 1, additive effect produces CI close to 1, whereas CI > 1 corresponds to antagonistic effect.

[2] = Preparation of 50 mM stock solution in DMSO; assay type: physicochemical
Method: As noted in the methodology section, a 50 mM stock solution in DMSO was prepared for each compound.
Compounds were obtained in mg quantity and subsequently dissolved in DMSO to prepare a 50 mM stock solution. The purity of all compounds was > 95%, as declared by vendors or collaborators.

recombinant hNAPRT [3] = molecular target: T1, recombinant hNAPRT (Homo sapiens, UniProt Q6XQN6); test: hNAPRT inhibition assay (HPLC of NA and NAMN); assay type: biochemical; settings: for IC50: 100 µM nicotinic acid, 200 µM PRPP, 45 min at 37 °C, formation of NAMN
T1 construct: His-tag (C); made in house; host or cells: E. coli
T1 sequence (Q6XQN6 1-538): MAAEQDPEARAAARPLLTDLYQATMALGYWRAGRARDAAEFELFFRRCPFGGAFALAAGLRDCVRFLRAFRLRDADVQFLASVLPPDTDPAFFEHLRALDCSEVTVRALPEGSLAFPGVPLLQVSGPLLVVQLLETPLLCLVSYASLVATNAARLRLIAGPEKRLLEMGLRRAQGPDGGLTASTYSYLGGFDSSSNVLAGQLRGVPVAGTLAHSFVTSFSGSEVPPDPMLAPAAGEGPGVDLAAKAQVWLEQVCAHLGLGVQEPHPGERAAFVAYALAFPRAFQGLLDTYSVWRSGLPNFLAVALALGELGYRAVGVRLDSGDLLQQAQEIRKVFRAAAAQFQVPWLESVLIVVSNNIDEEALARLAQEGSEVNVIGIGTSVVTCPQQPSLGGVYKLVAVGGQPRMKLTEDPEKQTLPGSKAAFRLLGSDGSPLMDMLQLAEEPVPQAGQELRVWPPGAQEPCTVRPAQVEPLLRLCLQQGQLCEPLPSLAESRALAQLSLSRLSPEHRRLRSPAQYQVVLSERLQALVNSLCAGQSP
Method: hNAPRT was expressed in E. coli with an N-terminal His-tag and purified as described above. The enzymatic reactions were carried out at 37 °C in standard reaction mixtures containing 50 mM Tris-HCl, pH 7.4, 10 mM KCl, 2 mM MgCl2, 100 µM nicotinic acid, 200 µM PRPP, 0.1 mg/mL purified recombinant hNAPRT, and the test compound at five different concentrations ranging from 20 µM to 1000 µM.
Blank mixtures without compounds but with equal amounts of DMSO were set in parallel and their rates fixed as 100% activity. NAPRT was pre-incubated with the compounds for 5 min and reactions were started by the addition of the enzyme substrates and stopped after 45 min of incubation by heating to 85 °C for 3 min. Following centrifugation of the reaction mix, the supernatant was analyzed by HPLC by injection into a reverse-phase column (XTerra MS C18 Column, 125Å, 5 μm, 4.6 × 150 mm, Waters). The eluted species were monitored at 260 nm and the peaks of nicotinic acid and nicotinic acid mononucleotide were quantified with reference to standard curves. The percentage of nicotinic acid conversion was calculated for each reaction and the IC50 values for the active compounds were determined with GraphPad Prism 8 software (GraphPad Software, S. Diego, CA, USA).

recombinant hNAPRT [4] = molecular target: T1, recombinant hNAPRT; test: hNAPRT melting temperature determination (DSF); assay type: binding; settings: 100 μM inhibitor, 5 μM hNAPRT
Method: With the purpose to provide support to the results that were obtained in the enzymatic activity assay, the ability of the new hNAPRT inhibitors to stabilize the protein through binding was evaluated via the measurement of the hNAPRT melting temperature in the presence or absence of the inhibitors at a 100 μM concentration. The resulting Tm shifts are depicted in Figure 5. […] A plausible explanation for this outcome is that larger compounds are more likely to establish a higher number of interactions and thus result in greater stabilization of a given protein.
Figure 5 NAPRT inhibitors MMB-128 and MMB-131 directly engage recombinant hNAPRT. Differential scanning fluorimetry (DSF) was used to determine the thermal stabilization of hNAPRT protein upon inhibitor binding. Recombinant hNAPRT protein was exposed to 100 μM hNAPRT inhibitors over a defined temperature gradient and the melting temperature Tm was calculated for each compound. The data are shown as means ± standard error of the means (SEM) of two technical replicates with three biological replicates each. * p < 0.05; unpaired t-test.
The melting temperature ™ of hNAPRT was determined through the differential scanning fluorimetry (DSF) technique. Triplicates of 100 μM of each test compound and DMSO were added to a 96-well clear bottom BioRad PCR plate. Subsequently, DSF protein buffer, containing 5 μM of recombinant hNAPRT protein and 5X SPYRO® Orange (S5692, Sigma-Aldrich) in 20 mM HEPES pH 7.5, 100 mM NaCl, 10 mM Mg-acetate, and 1 mM DTT was added. The plate was sealed and exposed to a temperature gradient from 20 to 95 °C in a BioRad CFX96 Real-Time System. The fluorescence for each temperature increment was measured at 465–580 nm with an excitation wavelength of 465 nm. The DSF templates that were provided by Niesen et al. were used for data analysis followed by GraphPad Prism 8 for statistical analysis of the generated data.

[5] = test compound 100 µM + 100 nM FK866, 72 h

SMILES | IC50 (recombinant hNAPRT [3]) [µM] | drop in NAD+ levels [1] | cytotoxicity in combination with FK866 (OVCAR-5 cells; [5]) | Tm shift of hNAPRT (recombinant hNAPRT [4]) | other results
O=C(O)c1cccnc1O [Compound 2-HNA, 2-hydroxynicotinic acid, reference compound] |  |  |  |  | drop in intracellular NAD+ concentration ([1]; 1 mM 2-HNA + 30 nM FK866, 20 h): 86%; cytotoxicity of co-treatment with FK866 (OVCAR-5 cells; 1 mM 2-HNA + 100 nM FK866, 72 h): pronounced cell death; also recorded: marked cytotoxicity; combination index (CI) with FK866 (OVCAR-5 cells; 2-HNA 1 mM + 100 nM FK866, 72 h): 0.08; cell viability, single-agent treatment (OVCAR-5 cells): withstood
O=C(/C=C/c1cccnc1)NCCCCC1CCN(C(=O)c2ccccc2)CC1 [FK866, reference compound] |  |  |  |  | decrease of intracellular NAD+ levels ([1]; 30 nM FK866 alone, 20 h): 24%; cell viability, single-agent treatment (OVCAR-5 cells): withstood
Cc1cc(C(=O)O)nc(N)n1 [IM 28] |  |  |  |  | solubility in DMSO [2]: could not be solubilized
NCc1cc2c(cc1Cl)OCO2 [IM 29] | 160 | 42.9–56.4% | high cytotoxicity | remained unchanged | potentiation of the effect of FK866 in reducing intracellular NAD levels ([1]; combination with FK866): more than two-fold
CC(Oc1ccccc1Cl)C(=O)Nc1cccc(C(=O)O)c1 (stereo not drawn) [IM 38] | 265 | 42.9–56.4% | less pronounced cytotoxicity | remained unchanged | 
COc1ccc2cc(C=O)c(O)nc2c1 [IM 43] |  |  | high cytotoxicity |  | interaction with FK866 in NAD+ reduction [1]: additive effects
O=C(Cn1c(=O)sc2ccccc21)Nc1cccc(C(=O)O)c1 [IM 49] | 232 |  | less pronounced cytotoxicity | remained unchanged | interaction with FK866 in NAD+ reduction [1]: lower degree of synergism; effect on intracellular NAD+ levels, compound alone ([1]; test compound 100 µM alone, 20 h): strongly reduced
CC(C)(C)C(=O)OCCCn1cc(CCCN2CC(O)C(O)C2CNC(=O)c2ccccc2)nn1 (stereo not drawn) [MMB-128] |  | 42.9–56.4% | high cytotoxicity | approximately 0.5 °C | 
CC(C)(C)C(=O)OCCCn1cc(CCCN2CC(O)C(O)C2Cn2cc(-c3ccccc3)nn2)nn1 (stereo not drawn) [MMB-131] | 242 | 42.9–56.4% | less pronounced cytotoxicity | approximately 0.5 °C | 
OC1CNC(Cn2cc(-c3cc(C(F)(F)F)cc(C(F)(F)F)c3)nn2)C1O (stereo not drawn) [MMB-268] |  | 42.9–56.4% | high cytotoxicity |  | inhibition of hNAPRT (recombinant hNAPRT [3]; data not shown): negligible inhibition
COc1cc(OC)cc(-c2cn(CC3NCC(O)C3O)nn2)c1 (stereo not drawn) [MMB-312] |  |  | less pronounced cytotoxicity |  | interaction with FK866 in NAD+ reduction [1]: additive effects; combination index (CI) with FK866 (OVCAR-5 cells; test compound 100 µM + 100 nM FK866, 72 h, CI < 1 synergistic): 0.12
